{"source": "patent US6685951B2", "about": "“Administration of dihydroergotamine as a sublingual spray or aerosol for the treatment of migraine” (R. T. Alamo Ventures I, Inc., priority 2001, dated 2004)", "key": {"[1]": {"test": "Plasma DHE after sublingual administration of DHE 45 dosing solution in a monkey", "format": "in vivo, Cynomogolius monkey", "protocol": "In this example the intrinsic permeability of DHE was shown after it was sublingually administered DHE in a Cynomogolius monkey.\nThe test DHE was obtained from as DHE 45® Injection, USP (manufactured by Novartis). Specific information follows.\n(§1) Prior to dose administration, the animal was restrained and anesthetized with an appropriate amount of ketamine. Using a calibrated pipette, 0.5 mL of dosing solution was placed under the animal's tongue immediately after swabbing excess saliva with a gauze pad (the gauze pad will be discarded). The animal's head was restrained for approximately 5 minutes in such a manner to minimize any loss of the dose solution through the animal's mouth or down the animal's throat.\nBlood (approximately 1 mL) was collected from each animal prior to dosing (predose) and at 0.1, 0.2, 0.3, 0.4, 0.5, 1, 2, 4, 8, and 12 hours postdose. Blood was collected via a femoral vein into sodium-heparinized tubes.\nBlood was maintained on wet ice, in chilled Kryoracks, or at approximately 5° C. prior to centrifugation to obtain plasma. Centrifugation was begin within 30 minutes of collection. The blood samples were centrifuged at approximately 5° C. for approximately 10 minutes at approximately 4,000 rpm. Plasma was harvested and stored on dry ice or at approximately −70° C. prior to shipment.\nThe plasma was assayed for DHE using standard techniques."}, "[2]": {"test": "Mortality/moribundity checks and cageside observation after sublingual DHE", "format": "in vivo, Cynomogolius monkey", "settings": "sublingual 0.5 mL of 1.0 mg/mL; throughout the study", "protocol": "as §1\nMortality and moribundity checks were done twice daily (a.m. and p.m.). Cageside observation for general health and appearance was done once daily."}, "[3]": {"test_system": "migraine symptoms", "test": "Example 2: sublingual DHE vs placebo in patients suffering from migraines", "format": "in vivo", "settings": "1 mg sublingual DHE", "protocol": "This experiment utilizes two test groups of patients. All of the patients are suffering from migraines. One group receives a 1 mg dose of sublingual DHE, the other group receives a placebo. The DHE sublingual formulation is placed by the patients or medical professional under the tongue. The DHE sublingual formulation is allowed to dissolve fully. If the symptoms are not relieved within 20 to 40 minutes, a second dose is administered. Results are compared between the test group and the placebo group. […] The difference in amelioration of migraine symptoms are statistically significant."}, "[4]": {"test_system": "migraine symptoms", "test": "Example 3: sublingual DHE tablet vs subcutaneous injection of DHE in migraine patients", "format": "in vivo", "settings": "1 mg sublingual tablet vs 1 mg subcutaneous injection", "protocol": "This example compares the effect on migraine of subcutaneous injection vs. the sublingual administration of the present invention.\nThis experiment utilizes three test groups of patients. All of the patients are suffering from migraines. One group receives a 1 mg dose of sublingual DHE tablet and a placebo subcutaneous injection, the second group receives a 1 mg subcutaneous injection of a pharmaceutical formulation comprising DHE and a placebo sublingual tablet, and the third group receives a placebo subcutaneous injection and a placebo sublingual tablet. Results are compared between the active sublingual test group and the active subcutaneous test group."}, "[5]": {"test_system": "migraine symptoms", "test": "Example 4: sublingual DHE vs nasal administration of DHE in migraine patients", "format": "in vivo", "settings": "2 mg sublingual vs 2 mg nasally administered", "protocol": "This example compares the effect on migraine of nasal administration of DHE vs. the sublingual administration of the present invention.\nThis experiment utilizes three test groups of patients. All of the patients are suffering from migraines. One group receives a 2 mg dose of sublingual DHE and placebo intranasal spray, the second group receives a 2 mg nasally administered dose of a pharmaceutical formulation comprising DHE and a placebo sublingual tablet, the third group receives a placebo sublingual tablet and a placebo intranasal spray. Results are compared between the active sublingual test group and the active nasal test group."}, "[6]": {"test": "Example 5: plasma uptake of DHE, sublingual tablet vs subcutaneous administration", "format": "in vivo, patient", "settings": "plasma monitored 24 hours", "protocol": "This example evaluates the uptake in sublingual vs. subcutaneous administration of DHE.\nIn this experiment one patient suffering from migraine pain is administered a migraine ameliorating dose of DHE as a sublingual tablet formulated as described in Example 1. The plasma concentration of DHE is monitored for a time of 24 hours after the administration. […] The rate and amount of DHE in the plasma is compared to that obtained by subcutaneous administration."}, "[7]": {"test": "Example 6: two-way crossover, DHE tablet under the tongue vs orally with water", "format": "in vivo, healthy normal volunteers", "settings": "tablet under the tongue vs orally with about 240 ml water; blood over 24 hour", "protocol": "Each volunteer is administered DHE sublingual tablet manufactured as defined in this patent. In one treatment the tablet is administered under the tongue and in the crossover treatment the subject is administered the tablet orally with about 240 ml of water. Blood samples are taken serially over a 24 hour duration post administration and assayed for unchanged DHE and the principle 8-hydroxy DHE metabolite."}, "[8]": {"settings": "oral forms of DHE; cited from earlier work"}, "[9]": {"test_system": "migraine", "settings": "in vivo; cited from earlier work"}}}
{"smiles": "CN1C[C@H](C(=O)N[C@]2(C)O[C@@]3(O)[C@@H]4CCCN4C(=O)[C@H](Cc4ccccc4)N3C2=O)C[C@@H]2c3cccc4[nH]cc(c34)C[C@H]21", "note": "[DHE, Dihydroergotamine]", "values": [{"measurement": "half-life", "setting": "[1]; cynomolgus, monkey, in vivo", "result": 2.2, "unit": "h"}, {"measurement": "Tmax", "setting": "[1]; cynomolgus, monkey, in vivo, 0.5 mg, plasma, sublingual 0.5 mL of 1.0 mg/mL, read-out: Tmax (time point of maximum concentration) (converted)", "result": 5, "unit": "min"}, {"measurement": "detection of DHE in the blood plasma after sublingual administration", "setting": "[1]; sublingual", "result": "rapid detection of DHE in the blood plasma"}, {"measurement": "observations for general health and appearance, mortality and moribundity", "setting": "[2]", "result": "No unusual observations"}, {"measurement": "amelioration of migraine symptoms compared to placebo control group", "setting": "[3]", "result": "greater amelioration of migraine symptoms"}, {"measurement": "amelioration of migraine symptoms, sublingual vs subcutaneous group", "setting": "[4]", "result": "equivalent amelioration of migraine symptoms"}, {"measurement": "amelioration of migraine symptoms, sublingual vs nasal group", "setting": "[5]", "result": "equivalent amelioration of migraine symptoms"}, {"measurement": "time to maximum plasma concentration of DHE", "setting": "[6]", "result": "30 to 60", "unit": "min"}, {"measurement": "levels of active DHE, sublingual higher than oral", "setting": "[7]", "result": "at least 200%"}, {"measurement": "active unchanged drug that reaches the blood stream", "setting": "[8]", "result": "2-10%"}]}
{"smiles": "CN(C)CCc1c[nH]c2ccc(Cn3cncn3)cc12", "note": "[rizatriptan]", "values": [{"measurement": "efficacy in the treatment of migraine", "setting": "[9]", "result": "60-70%"}]}
